Measurements: ChEMBL document CHEMBL1139967, “Design, synthesis, and SAR of macrocyclic tertiary carbinamine BACE-1 inhibitors” (Bioorg Med Chem Lett, 2007)

Experiments:
in vitro = conditions: human, LLC-PK1
Description: Apparent permeability across L-MDR1 cells

Renin = molecular target: T1, Renin (Homo sapiens, UniProt P00797); test: Inhibition of renin
T1 sequence (P00797 whole entry): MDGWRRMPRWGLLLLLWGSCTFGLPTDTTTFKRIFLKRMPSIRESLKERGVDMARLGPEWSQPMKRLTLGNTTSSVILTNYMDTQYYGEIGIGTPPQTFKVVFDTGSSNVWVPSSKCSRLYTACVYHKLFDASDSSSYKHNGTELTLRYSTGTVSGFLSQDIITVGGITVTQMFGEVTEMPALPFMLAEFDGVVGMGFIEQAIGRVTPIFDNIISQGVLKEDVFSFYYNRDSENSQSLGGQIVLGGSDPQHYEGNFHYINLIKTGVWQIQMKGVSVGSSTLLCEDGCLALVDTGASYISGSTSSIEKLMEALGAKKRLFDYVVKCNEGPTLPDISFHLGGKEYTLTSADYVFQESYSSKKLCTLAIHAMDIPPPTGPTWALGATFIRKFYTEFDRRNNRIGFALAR

Beta-secretase 2 = molecular target: T2, Beta-secretase 2 (Homo sapiens, UniProt Q9Y5Z0); test: Inhibition of BACE2
T2 sequence (Q9Y5Z0 whole entry): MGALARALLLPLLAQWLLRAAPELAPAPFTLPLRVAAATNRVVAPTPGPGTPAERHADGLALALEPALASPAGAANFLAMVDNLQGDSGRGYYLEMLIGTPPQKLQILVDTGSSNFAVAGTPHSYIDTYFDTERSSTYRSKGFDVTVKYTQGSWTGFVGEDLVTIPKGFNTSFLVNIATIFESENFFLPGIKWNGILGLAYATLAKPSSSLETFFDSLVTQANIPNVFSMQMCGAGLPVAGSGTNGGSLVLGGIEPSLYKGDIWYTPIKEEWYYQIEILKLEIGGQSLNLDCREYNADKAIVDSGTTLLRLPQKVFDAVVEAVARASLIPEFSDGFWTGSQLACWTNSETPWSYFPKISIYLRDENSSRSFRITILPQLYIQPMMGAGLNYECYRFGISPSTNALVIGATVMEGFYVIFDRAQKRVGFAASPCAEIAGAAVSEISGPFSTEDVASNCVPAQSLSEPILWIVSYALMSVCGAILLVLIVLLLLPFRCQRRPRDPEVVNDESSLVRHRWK

Cathepsin D = Cathepsin D (Homo sapiens, UniProt P07339)
Description: Inhibition of cathepsin D

Brain = test: Drug level in mouse brain at 30 mg/kg, ip after 2 hrs; assay type: ADME, organism-based; design: dose 30 mg/kg, route intraperitoneal; conditions: in vivo

Chain of Cathepsin D (P07339 65-162 limits assumed): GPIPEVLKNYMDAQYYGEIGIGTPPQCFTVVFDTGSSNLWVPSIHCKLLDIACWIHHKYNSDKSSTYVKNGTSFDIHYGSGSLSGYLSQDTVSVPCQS
Chain of Cathepsin D (P07339 169-412 limits assumed): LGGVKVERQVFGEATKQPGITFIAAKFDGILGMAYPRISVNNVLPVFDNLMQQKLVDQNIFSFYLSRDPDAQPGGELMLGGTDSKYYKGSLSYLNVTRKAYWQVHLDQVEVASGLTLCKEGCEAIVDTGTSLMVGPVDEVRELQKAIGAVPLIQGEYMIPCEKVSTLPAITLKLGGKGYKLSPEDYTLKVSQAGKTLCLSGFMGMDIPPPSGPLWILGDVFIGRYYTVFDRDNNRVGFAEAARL

| Papp (in vitro) | also measured | Structure (SMILES) |
| --- | --- | --- |
| 13 ×10⁻⁶ cm/s |  | CN(c1cc2cc(c1)C(=O)N[C@@H](c1ccccc1)CCc1cccc(c1)C[C@@](C)(N)C(=O)OC2)S(=O)(=O)C(F)(F)F |
| 9 ×10⁻⁶ cm/s |  | C[C@@]1(N)Cc2cccc(c2)CC[C@H](c2ccccc2)NC(=O)c2cc(Br)cc(c2)COC1=O |
| 9 ×10⁻⁶ cm/s |  | CN(c1cc2cc(c1)C(=O)N[C@@H](c1ccccc1)CCc1cccc(c1)C[C@@](C)(N)C(=O)OC2)S(C)(=O)=O |
|  | IC50 (Renin): 144 µM; IC50 (Beta-secretase 2): 1.6 µM; IC50 (Cathepsin D): 275 µM | CCCN(c1cc2cc(c1)C(=O)N[C@@H](c1ccccc1)CCc1cccc(c1)C[C@@](C)(N)COC2)S(C)(=O)=O |
| 6 ×10⁻⁶ cm/s |  | C[C@@]1(N)Cc2ccc(F)c(c2)CC[C@H](c2ccc(F)cc2)NC(=O)c2cc(cc(-c3cccc(F)c3C#N)c2)COC1=O |
| 7 ×10⁻⁶ cm/s |  | C[C@@]1(N)Cc2cccc(c2)CC[C@H](c2ccc(F)cc2)NC(=O)c2cc(cc(-c3cccc(F)c3C#N)c2)COC1=O |
| 15 ×10⁻⁶ cm/s |  | CN(C)S(=O)(=O)N(C)c1cc2cc(c1)C(=O)N[C@@H](c1ccccc1)CCc1cccc(c1)C[C@@](C)(N)C(=O)OC2 |
| 6 ×10⁻⁶ cm/s |  | C[C@@]1(N)Cc2cccc(c2F)CC[C@H](c2ccc(F)cc2)NC(=O)c2cc(cc(-c3ccccc3C#N)c2)COC1=O |
| 9 ×10⁻⁶ cm/s |  | C[C@@]1(N)Cc2ccc(F)c(c2)CC[C@H](c2ccc(F)cc2)NC(=O)c2cc(cc(-c3ccccc3C#N)c2)COC1=O |
| 12 ×10⁻⁶ cm/s |  | CN(c1cc2cc(c1)C(=O)N[C@@H](c1ccccc1)CCc1cccc(c1)C[C@@](C)(N)C(=O)OC2)S(=O)(=O)CC(F)(F)F |
|  | IC50 (Renin): 169 µM; IC50 (Beta-secretase 2): 54 µM; IC50 (Cathepsin D): 97 µM | CCCN(c1cc2cc(c1)C(=O)N[C@@H](c1ccccc1)CCc1cccc(c1)C[C@@](C)(N)C(=O)OC2)S(C)(=O)=O |
| 9 ×10⁻⁶ cm/s | IC50 (Renin): 275 µM; IC50 (Beta-secretase 2): 41 µM; Activity (Brain): 16%; IC50 (Cathepsin D): 48 µM | C[C@@]1(N)Cc2cccc(c2)CC[C@H](c2ccccc2)NC(=O)c2cc(cc(-c3ccccc3C#N)c2)COC1=O |
